“Also recorded” adds a separate entry of the source. Where two headings read alike, the source gives them in different places.
What was measured:
[1] = Blood elimination kinetics after one-time intravenous administration; type: in vivo, rats; conditions: for Distribution volume Vss (MEAN) / Elimination half-life tβ (MEAN) / Total clearance CLtot (MEAN) / tα (MEAN): two-compartment model, n=3; for distribution volume in comparison to Dy-DTPA / elimination from the blood in comparison to Dy-DTPA: i.v., rats
Experimental: (§1) For this purpose, after one-time intravenous administration (via a caudal vein) of the substances (dose: ≈100 μmol of metal per kg of body weight), the substance concentration in the blood (based on the Gd or Dy content) was determined over a period of up to 120 minutes p.i. using ICP-AES. The pharmacokinetic parameters: distribution volume (Vss), total clearance (CLtot) and elimination half-life (tb) were calculated with a special computer program (TOPFIT 2.0; Thomae, Schering, Godecke), whereby a two-compartment distribution model was used as a basis.
The Gd and Dy contents in the blood were determined using ICP-AES.
as §1, with “metal” for “Gd or Dy”

[2] = Elimination of the contrast medium after s.c. administration (metal retention in organs); type: in vivo, guinea pig; conditions: 7 d p.i., 10 μmol/kg s.c., MW±SD, n=2
Excerpt: After subcutaneous administration of 10 μmol of total gadolinium (Example 19)/kg of body weight in the hind paw of the guinea pig, the retention of metal in the liver, in the kidneys and in the spleen was examined 7 days after administration.
Gd Concentration [% of Dose] in the Liver, Kidneys, Spleen (7 d p.i.) After Interstitial Administration of 10 μmol/kg (MW±SD, n=2)

[3] = Determination of the T1-relaxivity with a Minispec pc 20 in human plasma; type: physicochemical; conditions: for R^1 (T^1-relaxivity): 0.47 T (20 MHz), 37° C., human plasma, normalized to one metal atom; for relaxivity r1,plasm: plasma
Experimental: Determination of the T^1 -Relaxivity of Selected Compounds
The relaxivity of the following compounds was determined
with a Minispec pc 20 (20 MHz, 0.47 T) at 37° C. in human plasma
and compared to that of Gd-DTPA-polylysine and Magnevist^(R) as
comparison substances. Since the substances according to the
invention contain more than one metal atom, the relaxivity was
normalized to one metal atom for purposes of comparison.

[4] = Lymph node concentration in guinea pigs after subcutaneous administration (ICP-AES); type: in vivo, guinea pig; conditions: 10 μmol/kg s.c., MW±SD, n=3
Excerpt: The compounds according to the invention meet all of the requirements that are imposed by contrast media in indirect NMR lymphography: good local compatibility, quick removal from the injection site, quick and as complete an elimination as possible from the entire organism. They also show a high concentration over several lymph node stations and thus allow relevant diagnostic assessments. Thus, in the guinea pig model, a high concentration over several lymph node stations (popliteal, inguinal, iliac) after s.c. administration (2.5-10 μmol/kg of body weight, injection in the interdigital spaces of the hind paws) was shown. In especially suitable cases, gadolinium concentrations of, respectively, ≥200 or ≥300 μmol/l were thus obtained in the second (inguinal) and third (iliac) stations. Lymph node concentrations up to 1,000 μmol/l can usually be obtained with the compounds according to the invention.
The gadolinium complex of Example 19 was studied 30 minutes/90 minutes after subcutaneous administration (10 μmol of total gadolinium/kg of body weight, hind paw s.c.) to stimulated guinea pigs (complete Freund adjuvant; in each case 0.1 ml in the right and left upper and lower legs; 2 weeks before administration of the test substance) to determine their lymph node concentration in three successive lymph node stations (popliteal, inguinal, iliac). In this case, the results that are listed below (determination of gadolinium concentration using ICP-AES) are obtained:
Gd-Concentration [μmol/l] in three successive lymph node stations 30 and 90 minutes after interstitial administration of 10 μmol/kg (MW±SD, n=3)

[5] = Retention of the opacifying metal at the injection site; type: in vivo, guinea pig; conditions: 10 μmol/kg s.c., MW±SD, n=3
Excerpt: After s.c. administration of 10 μmol of total gadolinium (Example 19)/kg of body weight in the guinea pig's paw, the retention of metal at the injection site was studied at different times.
Gd-Concentration [% dose] at the Administration Site (Paw), After Interstitial Administration of 10 μmol/kg (MW±SD, n=3)

[6] = In-vivo comparison with an intravascular and an extracellular contrast medium in blocked kidneys (diffusibility); design: species or system rats; conditions: for Percentage of the dose that remains in the blood space: i.v., blocked renal vessels, compound 2 set at 100%
Experimental: As test animals, three 250 g male (Schering-SPF) rats were used. The renal vessels in the animals were blocked to prevent renal elimination and, assuming that fecal elimination is negligible, to obtain a measure of the diffusibility of the formulation according to the invention from the blood into the surrounding tissue. 0.5 ml (in each case 10 mmol/l) of the following contrast medium solution was intravenously administered per animal: a mixture consisting of 1 part each of the compound of Example 1g, named compound 1 below, of intravascular contrast medium Eu-DTPA-albumin, named compound 2 below and of extracellular contrast medium Dy-DTPA, named compound 3 below. Via a catheter in the common carotid artery, blood samples were taken at the following times: 15, 30, 45, 60, 90 seconds; 3, 5, 10, 15 minutes p.i. In the blood samples that were obtained, in each case the concentrations of gadolinium (Gd), europium (Eu) and dysprosium (Dy) were measured in parallel using atom emission spectrometry (ICP-AES). The proportion of the intravascular contrast medium compound 2 (Eu) that remains in the blood space was set at 100%. It was possible to compare the proportion of the formulation according to the invention of compound 1 (Gd) and compound 3 (Dy, extracellular comparison substance) that remained in the blood space by the different labeling in the same animal, and the proportion was set as a percentage of the concentration of compound 2.

[7] = Contrast-medium-supported MR angiography; type: in vivo, rats; conditions: one-time i.v. 50 or 100 μmol/kg, 2.0 tesla
Experimental: The studies on contrast-medium-supported MR angiography were performed on an experimental MRT system (SISCO SIS 85, 2.0 tesla) with a 3 D FLASH technique (10/2.6/40°).
To determine the effectiveness of contrast media for visualizing blood vessels, anesthetized (Rompun®+Ketavet®, 1+1, v/v; ≈1 ml per kg of body weight, i.m.) rats (Han. Wistar; ≈200 g of body weight) were studied by MR tomography.
The MIP (maximum intensity projection) images were calculated from the 3 D FLASH experiments before (left) and directly after one-time i.v. administration of 50 μmol/kg (center) or 100 μmol/kg (right) of the substance of Example 1g.

[8] = rat, in vivo; cited from earlier work
[9] = cited from earlier work
[10] = Table 4, i.v. ≈100 μmol metal/kg
[11] = Table 3, i.v. ≈100 μmol metal/kg

## 1,4,7-Tris{1,4,7-tris(N-carboxylatomethyl)-10-[N-(4,7-diaza-3,6,9-trioxo)-nonane-2,9-diyl]-1,4,7,10-tetraazacyclododecane, Gd complex}-10-[N-acetyl-(2-amino-N-ethyl-N-perfluoro-octylsulfonyl)]-1,4,7,10-tetraazacyclododecane [Example 19]
[1]; [10]
  Distribution volume Vss (MEAN): 0.12 Ukg
  Elimination half-life tβ (MEAN): 1.49 h
  Total clearance CLtot (MEAN): 0.94 mL·kg·min
  tα (MEAN): 2.52 min
[1]
  distribution volume in comparison to Dy-DTPA: smaller distribution volume
  elimination from the blood in comparison to Dy-DTPA: significantly slower elimination from the blood
[2]
  Gadolinium content in the organs, kidneys: 0.06 ± 0.04 % dose
  Gadolinium content in the organs, liver: 0.09 ± 0.09 % dose
  Gadolinium content in the organs, spleen: 0.00 ± 0.01 % dose
[3]
  R^1 (T^1-relaxivity): 21.4 L/mmol/s
  relaxivity r1,plasm: ≈ 19.5 l*mmol^-1 *s^-1
[4]; 30 minutes p.i., read-out: Gd concentration, blood
  concentration: 24 ± 3 µM
[4]; 30 minutes p.i., read-out: Gd concentration, iliac lymph nodes
  concentration: 50 ± 18 µM
[4]; 30 minutes p.i., read-out: Gd concentration, inguinal profund lymph nodes
  concentration: 43 ± 41 µM
[4]; 30 minutes p.i., read-out: Gd concentration, popliteal lymph nodes
  concentration: 345 ± 319 µM
[4]; 30 minutes p.i., read-out: Gd concentration, urine
  concentration: 261 ± 167 µM
[4]; 90 minutes p.i., read-out: Gd concentration, blood
  concentration: 25 ± 4 µM
[4]; 90 minutes p.i., read-out: Gd concentration, iliac lymph nodes
  concentration: 20 ± 8 µM
[4]; 90 minutes p.i., read-out: Gd concentration, inguinal profund lymph nodes
  concentration: 9 ± 2 µM
[4]; 90 minutes p.i., read-out: Gd concentration, popliteal lymph nodes
  concentration: 75 ± 20 µM
[4]; 90 minutes p.i., read-out: Gd concentration, urine
  concentration: 348 ± 119 µM
[5]; 30 minutes p.i.
  Gadolinium concentration at the injection site (paw): 48.4 ± 10.4 % of dose
[5]; 90 minutes p.i.
  Gadolinium concentration at the injection site (paw): 8.0 ± 1.7 % of dose
[5]; 7 days p.i.
  Gadolinium concentration at the injection site (paw): 0.7 ± 0.6 % of dose

## CC(C(=O)NCC(=O)NCC(=O)N1CCN(C(=O)CNC(=O)CNC(=O)C(C)N2CCN(CC(=O)[O-])CCN(CC(=O)[O-])CCN(CC(=O)[O-])CC2)CCN(C(=O)COCCC(F)(F)C(F)(F)C(F)(F)C(F)(F)C(F)(F)C(F)(F)C(F)(F)C(F)(F)F)CCN(C(=O)CNC(=O)CNC(=O)C(C)N2CCN(CC(=O)[O-])CCN(CC(=O)[O-])CCN(CC(=O)[O-])CC2)CC1)N1CCN(CC(=O)[O-])CCN(CC(=O)[O-])CCN(CC(=O)[O-])CC1.[Gd+3].[Gd+3].[Gd+3] (centres unmarked) [Example 1g, 1,4,7-Tris{,1,4,7-tris(N-carboxylatomethyl)-10-(N-1-methyl-3,6-diaza-2,5,8-trioxo-octane-1,8-diyl)-1,4,7,10-tetraazacyclododecane, Gdcomplex}-10-(N-2H,2H,4H,4H,5H,5H-3-oxa-perfluoro-tridecanoyl)-1,4,7,10-tetraazacyclododecane]
[1]; [11]
  Distribution volume Vss (MEAN): 0.09 Ukg
  Elimination half-life tβ (MEAN): 2.813 h
  Total clearance CLtot (MEAN): 0.41 mU (min*kg)
  tα (MEAN): 4.06 min
[1]
  distribution volume in comparison to Dy-DTPA: smaller distribution volume
  elimination from the blood in comparison to Dy-DTPA: significantly slower elimination from the blood
[6]; 30 seconds p.i.
  Percentage of the dose that remains in the blood space: 84%
[6]; 3 minutes p.i.
  Percentage of the dose that remains in the blood space: 62%
[6]; 10 minutes p.i.
  Percentage of the dose that remains in the blood space: 44%
[6]; compared with compound 2 and compound 3, listed as compound 1
  diffusibility from the vascular space into the surrounding tissue: slower during the entire test period; also recorded: significantly lower compared to the free diffusible, extracellular compound 3
[3]
  R^1 (T^1-relaxivity): 19.5 L/mmol/s
  relaxivity r1,plasm: ≈ 19.5 l*mmol^-1 *s^-1
[7]
  signal in the blood vessels in MR angiography (3 D FLASH, MIP): pronounced signal increase in the blood vessels

## Gd-DTPA-polylysine [reference compound]
[8]
  excretion route: excreted through the kidneys unaltered by glomerular filtration
[3]
  R^1 (T^1-relaxivity): 16.8 L/mmol/s

## albumin-Gd-DTPA
[9]; 24 hours after intravenous injection
  concentration in the liver tissue: ~30 % of the dose
[9]; within 24 hours
  dose eliminated: 20 % of the dose
